{
  "source": "paper PMC10046037",
  "about": "“GABRG2 Variants Associated with Febrile Seizures” (Biomolecules, 2023)",
  "target": "T1, α1β3γ2 GABAA receptor, γ2R215H variant (Homo sapiens, UniProt P14867+P18507+P28472, R215H)",
  "T1 construct": "expressed in transfected cells; host or cells: HEK293T",
  "T1 sequence (P14867 28-456)": "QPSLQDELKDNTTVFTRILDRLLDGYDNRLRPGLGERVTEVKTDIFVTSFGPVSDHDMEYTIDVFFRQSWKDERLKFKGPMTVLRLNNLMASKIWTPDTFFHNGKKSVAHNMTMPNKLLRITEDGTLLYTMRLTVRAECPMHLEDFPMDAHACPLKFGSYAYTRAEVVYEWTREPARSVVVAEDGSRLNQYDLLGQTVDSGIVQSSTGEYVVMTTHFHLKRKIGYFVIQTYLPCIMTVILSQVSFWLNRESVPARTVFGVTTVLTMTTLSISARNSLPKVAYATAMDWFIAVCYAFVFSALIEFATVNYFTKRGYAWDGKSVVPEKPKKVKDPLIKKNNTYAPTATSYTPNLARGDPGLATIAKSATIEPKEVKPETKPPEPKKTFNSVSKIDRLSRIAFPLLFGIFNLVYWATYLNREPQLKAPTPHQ",
  "T1 sequence (P28472 26-473 isoform P28472-2)": "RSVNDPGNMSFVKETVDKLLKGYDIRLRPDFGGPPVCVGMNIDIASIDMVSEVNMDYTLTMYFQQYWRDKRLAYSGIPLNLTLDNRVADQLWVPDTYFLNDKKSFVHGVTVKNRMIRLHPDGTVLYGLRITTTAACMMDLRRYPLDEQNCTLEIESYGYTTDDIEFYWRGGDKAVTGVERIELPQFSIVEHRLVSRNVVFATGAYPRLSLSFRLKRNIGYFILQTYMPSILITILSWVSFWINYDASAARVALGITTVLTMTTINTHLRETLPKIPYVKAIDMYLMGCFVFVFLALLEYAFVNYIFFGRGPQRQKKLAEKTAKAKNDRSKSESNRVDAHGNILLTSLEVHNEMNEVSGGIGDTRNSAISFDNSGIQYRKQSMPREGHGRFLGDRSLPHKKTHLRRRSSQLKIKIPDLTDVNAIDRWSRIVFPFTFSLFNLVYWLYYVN",
  "T1 sequence (P18507 40-475 R215H)": "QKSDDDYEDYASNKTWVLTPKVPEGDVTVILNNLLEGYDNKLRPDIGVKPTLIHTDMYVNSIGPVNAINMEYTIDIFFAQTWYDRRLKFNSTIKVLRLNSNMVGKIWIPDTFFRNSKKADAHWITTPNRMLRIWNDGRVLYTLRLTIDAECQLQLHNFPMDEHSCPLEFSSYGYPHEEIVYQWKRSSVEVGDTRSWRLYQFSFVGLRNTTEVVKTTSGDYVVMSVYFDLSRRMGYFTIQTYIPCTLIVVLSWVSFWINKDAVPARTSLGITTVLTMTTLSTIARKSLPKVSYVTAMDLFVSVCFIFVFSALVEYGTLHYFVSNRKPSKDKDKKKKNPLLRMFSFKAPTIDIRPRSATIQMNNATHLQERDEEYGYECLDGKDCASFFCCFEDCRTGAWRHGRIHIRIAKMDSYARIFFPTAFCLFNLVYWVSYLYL",
  "test": "Automated patch clamp of GABA-elicited currents (SyncroPatch 384PE), γ2R215H",
  "format": "cell-based",
  "settings": "mean",
  "protocol": "The coding sequences of human α1 (GABRA1, NM_000806), β3 (GABRB3, NM_021912), and γ2 (GABRG2, NM_198904.2) GABAAR subunits were subcloned into the pcDNA3.1 expression vectors (Invitrogen, Waltham, MA, USA).\nHEK293T cells (ATCC, CRL-11268) were cultured at 37 °C in a humidified 5% CO2 incubator and maintained in Dulbecco’s modified Eagle’s medium (Invitrogen) supplemented with 10% fetal bovine serum (Life Technologies, Carlsbad, CA, USA), and 100 IU/mL of penicillin/streptomycin (Life Technologies). For the expression experiments, 4 × 10^5 cells were transfected using polyethylenimine (PEI) reagent (40 kD, Polysciences, Warrington, PA, USA) at a DNA: to transfection reagent ratio of 1:2.5 and harvested 36 h after transfection. To express WT and variant α1β3γ2 receptors, a total of 3 µg of α1, β3, and γ2 (WT or mutant) subunit cDNAs were transfected at a ratio of 1:1:1 into 60 mm culture dishes. For the mock-transfected condition, an empty pcDNA3.1 vector was added for a final cDNA transfection amount of 3 μg. For the electrophysiology experiments, 2.5 × 10^5 cells were plated in 100 mm culture dishes and transfected after 24 h with 3 μg of cDNA of each α1, β3, γ2 (wild-type or mutant) subunit, using X-tremeGENE HP DNA transfection Reagent (Roche Diagnostics, Basel, Switzerland), following the manufacturer’s protocol. Recordings were obtained forty-eight hours after transfection.\nWhole-cell patch clamp recordings were conducted according to the manufacturer’s standard procedure for the SyncroPatch 384 [31]. […] Using PatchControl 384, electrophysiological parameters, such as seal resistance, capacitance, and series resistance, were determined for each well after the application of a test pulse, and subsequently monitored over time. […] The currents were normalized to the maximal response of each well, and the concentration–response curves were calculated from single-point additions. The EC50 values for each variant or wild-type receptor were calculated across multiple wells for each experimental condition.",
  "data": [
    {"smiles": "NCCCC(=O)O", "note": "[GABA, γ-aminobutyric acid]", "values": [
      {"measurement": "IMAX (maximal GABA-evoked peak current)", "setting": "1 mM GABA for 5 ms, HEK293T", "result": 0.61, "unit": "nA"},
      {"measurement": "IMAX variant/IMAX WT", "setting": "1 mM GABA", "result": 30.44, "unit": "%"},
      {"measurement": "Rise Time", "setting": "10–90% rise time, 1 mM GABA for 5 ms, HEK293T", "result": 31.68, "unit": "ms"}
    ]}
  ]
}
